According to US9718790B2, “Triazine derivative and pharmaceutical composition having an analgesic activity comprising the same” (SHIONOGI & CO., LTD., priority 2010, dated 2017):

molecular target: human P2X3 receptor (Homo sapiens (Human), UniProt P56373); experiment: Evaluation of human P2X3 receptor inhibitory activity (Fluo-3 calcium fluorescence, FDSS 3000, ATP stimulation); type: cell-based; details: C6BU-1 cells stably expressing human P2X3 receptor;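 note: stimulus was 50 nM ATP with fluorescence followed for 3 min, and the response per well was peak post-ATP fluorescence divided by the reading at measurement start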
Sequence (P56373 whole entry): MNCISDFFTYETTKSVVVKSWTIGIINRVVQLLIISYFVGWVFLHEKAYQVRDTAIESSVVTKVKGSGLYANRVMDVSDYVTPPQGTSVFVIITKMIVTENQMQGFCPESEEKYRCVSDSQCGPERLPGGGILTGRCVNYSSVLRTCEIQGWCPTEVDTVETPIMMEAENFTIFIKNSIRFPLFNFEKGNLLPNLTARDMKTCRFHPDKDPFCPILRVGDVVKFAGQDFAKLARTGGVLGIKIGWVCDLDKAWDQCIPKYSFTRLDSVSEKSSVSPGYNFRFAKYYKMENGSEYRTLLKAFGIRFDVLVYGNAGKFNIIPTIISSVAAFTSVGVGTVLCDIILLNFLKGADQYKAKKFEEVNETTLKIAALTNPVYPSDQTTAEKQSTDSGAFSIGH

| SMILES | IC50 [nM] |
| --- | --- |
| COC(=O)[C@@H](C)Cn1c(=O)[nH]/c(=N\c2ccc(CC(C)C)c(Cl)c2)n(Cc2ccc(C)nc2)c1=O [Compound I-1464] | 70 |
| CCOC(=O)C1(COc2ccc(/N=c3\[nH]c(=O)n(CC)c(=O)n3Cc3ccc(Cl)cc3)cc2)CC1 [Compound I-2014] | 360 |
| CCn1c(=O)[nH]/c(=N\c2ccc(Oc3ccnc(C(=O)OC)c3)cc2)n(CC2CCC3(CC2)CC3)c1=O [Compound I-2174] | 6 |
| Cc1ccc(Cn2c(=O)n(C)c(=O)[nH]/c2=N\c2ccc(Oc3ccc(C(=O)O)cc3)cc2)cc1 [Compound I-2061] | 148 |
| CCn1c(=O)[nH]/c(=N\c2ccc(Oc3ccc(C)c(C(=O)O)c3)cc2)n(Cc2ccc(Cl)cc2)c1=O [Compound I-2017] | 41 |
| CCCOc1ccc(/N=c2\[nH]c(=O)n(C[C@H](C)C(=O)O)c(=O)n2Cc2ccc(Cl)cc2)cc1C [Compound I-0711] | 40 |
| CC(C)Oc1ccc(/N=c2\[nH]c(=O)n(CCC(=O)NO)c(=O)n2Cc2ccc(Cl)cc2)cc1F [Compound I-0603] | 12 |
| Cc1ccc(Cn2c(=O)n(CCC(=O)O)c(=O)[nH]/c2=N\c2ccc(CC(C)C)c(C)c2)cc1 [Compound I-1224] | 54 |
| CCOc1ccc(/N=c2\[nH]c(=O)n(C[C@H](C)C(=O)OC)c(=O)n2Cc2ccc(C)cc2)cc1F [Compound I-0605] | 25 |
| C[C@H](C(=O)O)[C@@H](C)n1c(=O)[nH]/c(=N\c2cccc(C(F)(F)F)c2)n(Cc2ccc(Cl)cc2)c1=O [Compound I-1345] | 69 |
| O=C(O)c1cc(Oc2ccc(/N=c3\[nH]c(=O)[nH]c(=O)n3Cc3ccc(Cl)cc3)cc2F)ccn1 [Compound I-2141] | 7 |
| CC(C)Oc1ccc(/N=c2\[nH]c(=O)n(CCNCCO)c(=O)n2Cc2ccc(Cl)cc2)cc1F [Compound I-2122] | 93 |
| CCOc1ccc(/N=c2\[nH]c(=O)n(C[C@@H](C)C(=O)OC)c(=O)n2CC2CCCCC2)cc1Cl [Compound I-0632] | 11 |
| Cc1ccc(Cn2c(=O)n([C@H](C)[C@H](C)C(=O)O)c(=O)[nH]/c2=N\c2ccc(OC(C)C)c(Cl)c2)cc1 [Compound I-1337] | 14 |
| Cc1cc(Oc2ccc(/N=c3\[nH]c(=O)n(CCCC(=O)O)c(=O)n3Cc3ccc(Cl)cc3)cc2)ccn1 [Compound I-1404] | 24 |
| Cc1cc2cc(/N=c3\[nH]c(=O)n(CC(CO)CO)c(=O)n3Cc3ccc(Cl)cc3)ccc2o1 [Compound I-2070] | 19 |
| CC(C)Oc1ccc(/N=c2\[nH]c(=O)n(CCCNC(=N)N)c(=O)n2Cc2ccc(Cl)cc2)cc1F [Compound I-0634] | 11 |
| Cc1cc(/N=c2\[nH]c(=O)n(CCCC(=O)N3CCOCC3)c(=O)n2Cc2ccc(Cl)cc2)ccc1OC(C)C [Compound I-0787] | 24 |
| Cc1cc(/N=c2\[nH]c(=O)n(C[C@H](C)C(=O)NCCO)c(=O)n2Cc2ccc(Cl)cc2)ccc1OC(C)C [Compound I-0723] | 24 |
| Cc1nc2ccc(/N=c3\[nH]c(=O)n(C[C@H](C)C(=O)O)c(=O)n3Cc3ccc(Cl)cc3)cc2s1 [Compound I-1349] | 15 |
| COC(=O)[C@@H](C)Cn1c(=O)[nH]/c(=N\c2ccc(Oc3ccnc(C)c3)cc2)n(Cc2ccc(C)cc2)c1=O [Compound I-1274] | 6 |
| COC(=O)[C@H](C)[C@H](C)n1c(=O)[nH]/c(=N\c2cccc(C(F)(F)F)c2)n(Cc2ccc(C)cc2)c1=O [Compound I-1309] | 21 |
| CC(C)Oc1ccc(/N=c2\[nH]c(=O)n(C[C@H](O)CO)c(=O)n2Cc2ccc(Cl)cc2)cc1Cl [Compound I-0638, (R)-1-(4-chlorobenzyl)6-(3-chloro-4-isopropoxyphenylamino)-3-(2,3-dihydroxypropyl)-1,3,5-triazinane-2,4-dion] | 6 |

same assay, conditions: C6BU-1 cells stably expressing human P2X3 receptor, Fluo-3 fluorescence, FDSS 3000

| SMILES | IC50 [nM] |
| --- | --- |
| CC(C)=Cc1ccc(/N=c2\[nH]c(=O)n(C[C@H](C)C(=O)O)c(=O)n2Cc2ccc(Cl)cc2)cc1Cl [Compound I-0959] | 7 |
| Cc1cc(/N=c2\[nH]c(=O)n(C3CNC3)c(=O)n2Cc2ccc(Cl)cc2)ccc1OC(C)C [Compound I-1709] | 167 |
| C[C@@H](C(=O)O)[C@H](C)n1c(=O)[nH]/c(=N\c2ccc3c(c2)CCN3S(C)(=O)=O)n(Cc2ccc(Cl)cc2)c1=O [Compound I-1774] | 255 |
| CCOC(=O)CCn1c(=O)[nH]/c(=N\c2ccc3nc(C(C)C)sc3c2)n(Cc2ccc(C)cc2)c1=O [Compound I-1562] | 6 |
| COC(=O)[C@@H](C)Cn1c(=O)[nH]/c(=N\c2ccc3oc(C)c(C)c3c2)n(Cc2ccc(Cl)cc2)c1=O [Compound I-1650] | 9 |
| CC(=O)NCCCn1c(=O)[nH]/c(=N\c2ccc(O[C@H](C)C(F)(F)F)cc2)n(Cc2ccc(Cl)cc2)c1=O [Compound I-1615] | 12 |
| C[C@@H](C(=O)O)[C@H](C)n1c(=O)[nH]/c(=N\c2ccc(OCC3CC3)cc2)n(Cc2ccc(Cl)cc2)c1=O [Compound I-0921] | 30 |
| Cc1ccc(Cn2c(=O)n(CCC(=O)O)c(=O)[nH]/c2=N\c2nc3ccccc3s2)cc1 [Compound I-1674] | 971 |
| Cc1ccc(Cn2c(=O)n(C[C@H](C)C(=O)O)c(=O)[nH]/c2=N\c2ccc(OC3CC3)c(Cl)c2)cc1 [Compound I-1607] | 35 |
| COC(=O)CCn1c(=O)[nH]/c(=N\C2CCCCC2)n(Cc2ccc(C)cc2)c1=O [Compound I-1668] | 309 |
| Cc1ccc(Cn2c(Nc3ccc(OC(C)C)cc3)nc(=O)n(C(C)C)c2=O)cc1[N+](=O)[O-] [Compound I-0218] | 505 |
| CC(=O)Nc1nc2ccc(/N=c3\[nH]c(=O)n([C@@H](C)[C@@H](C)C(=O)O)c(=O)n3Cc3ccc(Cl)cc3)cc2s1 [Compound I-1793] | 984 |
| CC[C@H](C)COc1ccc(/N=c2\[nH]c(=O)n(C[C@H](C)C(=O)OC)c(=O)n2Cc2ccc(C)cc2)cc1 [Compound I-1045] | 159 |
| C[C@@H](C(=O)O)[C@H](C)n1c(=O)[nH]/c(=N\c2ccc3c(c2)CCCC3=O)n(Cc2ccc(Cl)cc2)c1=O [Compound I-1784] | 950 |
| Cc1nc2ccc(/N=c3\[nH]c(=O)n(CC(N)=O)c(=O)n3Cc3ccc(Cl)cc3)cc2s1 [Compound I-1659] | 6 |
| CCn1c(=O)[nH]/c(=N\c2ccc(Oc3cncc(C(=O)OC)c3)cc2)n(Cc2ccc(Cl)cc2)c1=O [Compound I-1863] | 5 |
| COC(=O)[C@@H](C)Cn1c(=O)[nH]/c(=N\c2ccc(N3CCCC3)cc2)n(Cc2ccc(C)cc2)c1=O [Compound I-1086] | 291 |
| CCOC(=O)CCn1c(=O)[nH]/c(=N\c2ccc(OCC3CC3)cc2)n(Cc2ccc(Cl)cc2)c1=O [Compound I-1147] | 10 |
| COCO[C@@H](Cn1c(=O)[nH]/c(=N\c2ccc(OC(C)C)c(C)c2)n(Cc2ccc(Cl)cc2)c1=O)C(=O)OC [Compound I-0993, (S)-1-(4-chlorobenzyl)-6-(3-mehyl-4-isopropoxyphenylimino)-3-[2-methoxycarbonyl-2-(methoxymethyloxy)ethyl]-1,3,5-triazinane-2,4-dion] | 20 |
| Cc1ccc(Cn2c(=O)n(CCC(=O)O)c(=O)[nH]/c2=N\c2ccc(OC(C)C)c(C)c2)cc1 [Compound I-1158] | 63 |
| Cc1ccc(Cn2c(=O)n(C[C@H](C)C(=O)O)c(=O)[nH]/c2=N\c2ccc(OC3CCOCC3)nc2)cc1 [Compound I-1120] | 534 |

same assay, conditions: human P2X3 receptor, Test Example 1

| SMILES | IC50 [nM] |
| --- | --- |
| C=COc1ccc(/N=c2\[nH]c(=O)n(C[C@H](C)C(=O)OC)c(=O)n2Cc2ccc(C)cc2)cc1Cl [Compound I-1548] | 5 |
| CCn1c(=O)[nH]/c(=N\c2ccc(Oc3cnc(C(=O)O)nc3)cc2)n(Cc2ccc(Cl)cc2)c1=O [Compound I-2285] | 15 |
| CCOC(=O)CNc1ccc(Oc2ccc(/N=c3\[nH]c(=O)n(CC)c(=O)n3Cc3ccc(Cl)cc3)cc2)cn1 [Compound I-2614] | 27 |
| COC(=O)[C@@H](C)Cn1c(=O)[nH]/c(=N\c2ccc(Oc3ccc(OC)nc3)cc2)n(Cc2ccc(C)cc2)c1=O [Compound I-1522] | 5 |
| CCn1c(=O)[nH]/c(=N\c2ccc(Oc3cccc(-c4nnn[nH]4)n3)cc2)n(Cc2ccc(Cl)cc2)c1=O [Compound I-2602] | 2 |
| O=c1[nH]/c(=N\c2ccc(Oc3noc(C4CC4)n3)cc2)n(Cc2ccc(Cl)cc2)c(=O)n1CC(CO)CO [Compound I-2595] | 27 |
| Cc1ccc(Cn2c(=O)n(CCC(=O)O)c(=O)[nH]/c2=N\c2ccc(Oc3ncccn3)cc2)cc1 [Compound I-2558] | 22 |
| Cc1cncc(Oc2ccc(/N=c3\[nH]c(=O)n(CC(CO)CO)c(=O)n3Cc3ccc(Cl)cc3)cc2)n1 [Compound I-2709] | 6 |
| CCOC(=O)Cn1c(=O)[nH]/c(=N\c2ccc(Oc3cccc(F)n3)cc2)n(Cc2ccc(Cl)cc2)c1=O [Compound I-2562] | 4 |
| CCn1c(=O)[nH]/c(=N\c2ccc(Oc3cccc(C(N)=O)n3)cc2)n(Cc2ccc(Cl)cn2)c1=O [Compound I-2240] | 21 |
| Cn1c(=O)[nH]/c(=N\c2ccc(Oc3ccnc(C(=O)O)c3)c(F)c2)n(Cc2ccc(Cl)cc2)c1=O [Compound I-2461] | 7 |
| CCCOc1ccc(/N=c2\[nH]c(=O)n(CCCC(=O)O)c(=O)n2Cc2ccc(C)cc2)cc1Cl [Compound I-0873] | 47 |
| CNC(=O)Cn1c(=O)[nH]/c(=N\c2ccc(Oc3ccon3)cc2)n(Cc2ccc(Cl)cc2)c1=O [Compound I-2590] | 17 |
| CCn1c(=O)[nH]/c(=N\c2ccc(Oc3ccc(NC(=O)NC)nc3)cc2)n(Cc2ccc(Cl)cc2)c1=O [Compound I-2426] | 11 |
| Cc1nsc(Oc2ccc(/N=c3\[nH]c(=O)n(C[C@H](O)CO)c(=O)n3Cc3ccc(F)cc3)cc2)n1 [Compound I-2607] | 20 |
| NC(=O)Cn1c(=O)[nH]/c(=N\c2ccc(Oc3cccc(F)n3)cc2)n(Cc2ccc(Cl)cc2)c1=O [Compound I-2584] | 8 |
| Cc1ccc(Cn2c(=O)n(CCC(=O)O)c(=O)[nH]/c2=N\c2ccc3nc(C)sc3c2)cc1 [Compound I-1521] | 22 |
| O=C(O)CCn1c(=O)[nH]/c(=N\c2ccc(Oc3ncccn3)cc2)n(Cc2ccc(Cl)cc2)c1=O [Compound I-2557] | 19 |
| O=C(O)Cn1c(=O)[nH]/c(=N\c2ccc(Oc3cnsn3)cc2)n(Cc2ccc(Cl)cc2)c1=O [Compound I-2643] | 491 |
